The experiment concerns the target T1, histamine 3 receptor (H3R) (Homo sapiens, UniProt Q9Y5N1).
T1 construct: expressed in transfected cells; host or cells: CHO cells (HR3-CHO)
The experiment in a line: Competition binding assay with 3H-(R)α-methylhistamine on membranes of the human HR3-CHO cell line. Particulars: membrane of the human HR3-CHO cell line; 3H(R)α-Methylhistamine 1 nM; Ki calculated from IC50 by Cheng-Prusoff equation. Here is the method:
Binding Assay with ^3H-(R)α-methylhistamine
Saturation binding experiments were performed using HR3-CHO membranes prepared as described in Takahashi, K, Tokita, S., Kotani, H. (2003) J. Pharmacol. Exp. Therapeutics 307, 213-218.
An appropriate amount of membrane (60 to 80 μg protein/well) was incubated with increasing concentrations of ^3H(R)α-Methylhistamine di-hydrochloride (0.10 to 10 nM). Non specific binding was determined using a 200 fold excess of cold (R)α-Methylhistamine dihydrobromide (500 nM final concentration). The incubation was carried out at room temperature (in deep-well plates shaking for three hours). The final volume in each well was 250 μl. The incubation was followed by rapid filtration on GF/B filters (pre-soaked with 100 μl of 0.5% PEI in Tris 50 mM shaking at 200 rpm for two hours). The filtration was made using a cell-harvester and the filter plates were then washed five times with ice cold washing buffer containing 0.5 M NaCl. After harvesting, the plates were dried at 55° C. for 60 min, then we added scintillation fluid (Microscint 40, 40 microl in each well) and the amount of radioactivity on the filter was determined in Packard top-counter after shaking the plates for two hours at 200 rpm at room temperature.
Binding Buffer: 50 mM Tris-HCl pH 7.4 and 5 mM MgCl2x6H2O pH 7.4. Washing Buffer: 50 mM Tris-HCl pH 7.4 and 5 mM MgCl2x6H2O and 0.5 M NaCl pH 7.4.
Indirect measurement of affinity of H3R inverse agonists: twelve increasing concentrations (ranging from 10 μM to 0.3 nM) of the selected compounds were always tested in competition binding experiments using membrane of the human HR3-CHO cell line. An appropriate amount of protein, e.g. approximately 500 cpm binding of RAMH at Kd, were incubated for 1 hour at room temperature in 250 μl final volume in 96-well plates in presence of ^3H(R)α-Methylhistamine (1 nM final concentration=Kd). […]
All compounds were tested at a single concentration in duplicates. […] Ki's were calculated from IC50 based on Cheng-Prusoff equation (Cheng, Y, Prusoff, W H (1973) Biochem Pharmacol 22, 3099-3108).
T1 sequence (Q9Y5N1 whole entry): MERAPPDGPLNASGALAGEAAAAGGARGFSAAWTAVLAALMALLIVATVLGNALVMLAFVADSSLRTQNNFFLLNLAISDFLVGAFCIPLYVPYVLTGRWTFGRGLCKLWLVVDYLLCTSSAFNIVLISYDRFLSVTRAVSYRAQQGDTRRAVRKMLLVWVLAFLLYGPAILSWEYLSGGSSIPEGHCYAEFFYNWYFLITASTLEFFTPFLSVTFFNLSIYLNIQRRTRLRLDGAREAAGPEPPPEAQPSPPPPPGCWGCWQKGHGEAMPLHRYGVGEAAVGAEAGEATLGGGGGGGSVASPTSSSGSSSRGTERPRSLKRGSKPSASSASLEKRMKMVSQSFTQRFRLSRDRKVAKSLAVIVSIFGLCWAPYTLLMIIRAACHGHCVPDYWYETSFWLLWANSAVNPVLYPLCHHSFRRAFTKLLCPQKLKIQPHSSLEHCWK
On to `O=C(c1cc2cc(N3CCN(C4CCCC4)CC3)ncc2[nH]1)N1CCCC1` [Example 1, [5-(4-Cyclopentyl-piperazin-1-yl)-1H-pyrrolo[2,3-c]pyridin-2-yl]-pyrrolidin-1-yl-methanone], for which the Ki – broadly, the equilibrium dissociation constant of an inhibitor or competing ligand from its target – is 33 nM.

`CCCNC(=O)c1cc2cc(N3CCN(C4CCCC4)CC3)ncc2[nH]1` [Example 13, 5-(4-cyclopentyl-piperazin-1-yl)-1H-pyrrolo[2,3-c]pyridine-2-carboxylic acid propylamide]: the Ki is 27.4 nM.

`CC(C)N1CCN(c2cc3cc(C(=O)N4CCC(F)(F)CC4)[nH]c3cn2)CC1` [Example 27, (4,4-difluoro-piperidin-1-yl)-[5-(4-isopropyl-piperazin-1-yl)-1H-pyrrolo[2,3-c]pyridin-2-yl]-methanone]: the Ki is 63.1 nM.

These data come from patent US7348323B2, “Pyrrolo [2,3-c] pyridine derivatives” (Hoffmann-La Roche Inc., priority 2005, dated 2008).
